Where two headings read alike, the source gives them in different places.

15 compounds from patent US9120774B2 (University of Kansas, priority 2009, dated 2015) can be followed below.

Type in all cases: cell-based
Test [1] relates to MM2 (metastatic mammary tumor cancer cells). In words: Anti-proliferation activity against MM2 cells (MTS/PMS). As to conditions: 72 hours. On the procedure: (§1) Cells were maintained in a 1:1 mixture of Advanced DMEM/F12 (Gibco) supplemented with non-essential amino acids, L-glutamine (2 mM), streptomycin (500 μg/mL), penicillin (100 units/mL), and 10% FBS. Cells were grown to confluence in a humidified atmosphere (37° C., 5% CO2), seeded (2000/well, 100 μL) in 96-well plates, and allowed to attach overnight. Compound or GDA at varying concentrations in DMSO (1% DMSO final concentration) was added, and cells were returned to the incubator for 72 hours. At 72 hours, the number of viable cells was determined using an MTS/PMS cell proliferation kit (Promega) per the manufacturer's instructions. Cells incubated in 1% DMSO were used at 100% proliferation, and values were adjusted accordingly. IC50 values were calculated from separate experiments performed in triplicate using GraphPad Prism.

In test [2] the test system is A549 (human alveolar basal epithelial cells). As to the kind of experiment: Anti-proliferation activity against A549 cells (MTS/PMS). The conditions noted are these: 72 hours. As for the experimental part:
as §1

For test [3], the system named is MCF-7 (estrogen receptor positive breast cancer cells). In words: Anti-proliferation activity against MCF-7 cells (MTS/PMS). As to conditions: read-out: IC50 MCF-7. Summed up: (§2)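 Cells seeded at 2000/well, attached overnight, then exposed to compound at varying concentrations (1% DMSO final) for 72 hours at 37° C. Viable cells read by MTS/PMS, normalised to 1% DMSO as 100% proliferation. IC50 from separate triplicate experiments.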

Test [4] concerns LN3 (metastatic human prostate cancer cells). In words: Anti-proliferation activity against LN3 cells (MTS/PMS). As to conditions: 72 hours. As for the experimental part: as §1
In test [5] the test system is SkBr3 (Her2 overexpressing breast cancer cells). As to the kind of experiment: Anti-proliferation activity against SkBr3 cells (MTS/PMS). Summed up:
as §2

Test [6] relates to LNCaP (androgen sensitive prostate cancer cells). As to the kind of experiment: Anti-proliferation activity against LNCaP cells. The conditions noted are these: Homo sapiens, LNCaP, n = 3, read-out: IC50 LNCaP. The method, boiled down:
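Cells seeded at 2000/well in Advanced DMEM/F12 with 10% FBS and attached overnight, then given compound in 1% DMSO final for 72 h at 37 °C, 5% CO2. Viable cells by MTS/PMS read-out, normalised to 1% DMSO as 100% proliferation. IC50 from separate triplicate experiments.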

The subject of test [7] is PC-3 (androgen independent prostate cancer cells). As to the kind of experiment: Anti-proliferation activity against PC-3 cells. As to conditions: Homo sapiens, PC-3, n = 3, read-out: IC50 PC-3. The method, boiled down: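 Antiproliferative activity was tested in PC-3 androgen-independent prostate cancer cells. Cells grown at 37° C. with 5% CO2 in Advanced DMEM/F12 (1:1) containing non-essential amino acids, 2 mM L-glutamine, streptomycin, penicillin and 10% FBS were plated at 2000/well in 96-well plates. Proliferation was normalized to 1% DMSO controls, and IC50 values from triplicate experiments were fitted in GraphPad Prism.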

In test [8] the test system is HCT-116 (colon cancer cells characterized by wild-type p53). As to the kind of experiment: Anti-proliferation activity against HCT-116 cells. As to conditions: Homo sapiens, n = 3.
Test [9] has as its system PL45 (pancreatic cancer cells). In words: Anti-proliferation activity against PL45 cells. As to conditions: n = 3.
Where [10] appears, read: Table 8, unsaturated azasugar analogues.
[11] abbreviates: Table 9, azasugar analogues on 8-methyl coumarin.
The mark [12] stands for this setting: Table 9, azasugar analogues on 8-methyl coumarin, 72 hours.
Setting [13] is: Table 9, azasugar analogues on 8-methyl coumarin, 72 hours, read-out: IC50 SKBr3.
The mark [14] stands for this setting: Table 10, azasugar analogues on 6-methoxy coumarin.
The mark [15] stands for this setting: Homo sapiens, A549, Table 10, azasugar analogues on 6-methoxy coumarin.
The mark [16] stands for this setting: Homo sapiens, MCF7, Table 10, azasugar analogues on 6-methoxy coumarin, 72 hours.
Where [17] appears, read: Homo sapiens, Table 10, azasugar analogues on 6-methoxy coumarin.
[18] abbreviates: Homo sapiens, SK-BR-3, Table 10, azasugar analogues on 6-methoxy coumarin, 72 hours, read-out: IC50 SKBr3.
The mark [19] stands for this setting: Homo sapiens, MCF7, Table 4, biaryl analogues, n = 3.
Setting [20] is: Homo sapiens, SK-BR-3, Table 4, biaryl analogues, n = 3, read-out: IC50 SkBr3.
[21] abbreviates: Homo sapiens, MCF7, Table 5, heterocyclic analogues, n = 3.
Where [22] appears, read: Table 5, heterocyclic analogues.
Setting [23] is: Homo sapiens, SK-BR-3, Table 5, heterocyclic analogues, n = 3, read-out: IC50 SkBr3.

The IC50 is the point on the concentration scale where inhibition reaches its midpoint. In the case of `CO[C@@H]1[C@@H](O)[C@@H](O)[C@H](Oc2ccc3cc(NC(=O)c4ccccc4N)c(=O)oc3c2C)OC1(C)C` [18 KU-260], the IC50 is 4.36 µM in test [1] (setting [10]); 1.42 µM in test [2] (setting [10]); 1.73 µM in test [3] (Table 8, unsaturated azasugar analogues, 72 hours); 4.23 µM in test [4] (setting [10]); 1.61 ± 0.1 µM in [5] (Table 8, unsaturated azasugar analogues, 72 hours, read-out: IC50 SKBr3).

For the compound `CO[C@@H]1[C@@H](O)[C@@H](O)[C@H](Oc2ccc3cc(NC(=O)OCc4ccccc4)c(=O)oc3c2C)OC1(C)C` [24, KU-249], the IC50 in test [1] (setting [11]) was 7.75 µM; in test [2] (setting [11]) it was 4.07 µM; in [3] (setting [12]), 2.07 ± 1.1 µM; in [4] (setting [11]) it was 6.73 µM; in test [5] (setting [13]) it was 2.91 ± 1.1 µM.

Regarding `CO[C@@H]1[C@@H](O)[C@@H](O)[C@H](Oc2ccc3cc(NC(=O)C=Cc4ccccc4)c(=O)oc3c2C)OC1(C)C` [25, KU-254], the IC50 in test [1] (setting [11]) is 3.42 µM; in test [3] (setting [12]) it was over 50 µM; in test [4] (setting [11]), 0.23 µM; in [5] (setting [13]) it was over 50 µM.

On to `COc1ccc(C(=O)Nc2cc3ccc(O[C@@H]4OC(C)(C)[C@H](OC)[C@@H](O)[C@H]4O)c(C)c3oc2=O)cc1-c1ccccc1` [28, KU-252], for which the IC50 worked out at 2.99 µM in test [1] (setting [11]), 29.4 ± 8.4 µM in test [3] (setting [12]), 0.35 µM in test [4] (setting [11]) and 5.41 ± 0.8 µM in [5] (setting [13]).

Consider `COc1cccc(-c2cc(C(=O)Nc3cc4ccc(OC5CCN(C)CC5)c(OC)c4oc3=O)ccc2OC)c1` [KU-275], for which the IC50 in test [1] (Table 11, azasugar analogues on 8-methoxy coumarin) was found to be 3.71 µM; in [2] (Homo sapiens, A549, Table 11, azasugar analogues on 8-methoxy coumarin) it was 3.06 µM; in [3] (Homo sapiens, MCF7, Table 11, azasugar analogues on 8-methoxy coumarin, 72 hours) it was 1.39 ± 0.35 µM; in [4] (Homo sapiens, Table 11, azasugar analogues on 8-methoxy coumarin) it was 4.75 µM; in test [5] (Homo sapiens, SK-BR-3, Table 11, azasugar analogues on 8-methoxy coumarin, 72 hours, read-out: IC50 SKBr3) it was 0.97 ± 0.09 µM.

Regarding `COc1cccc(-c2cc(C(=O)Nc3cc4cc(OC)c(OC5CCCN(C)C5)c(C)c4oc3=O)ccc2OC)c1` (stereo not shown) [KU-281], the IC50 in test [1] (setting [14]) is 4.47 µM; in test [2] (setting [15]), 3.19 µM; in [3] (setting [16]), 1.41 ± 0.16 µM; in [4] (setting [17]), 6.63 µM; in test [5] (setting [18]), 1.49 ± 0.07 µM.

In the case of `COc1cccc(-c2cc(C(=O)Nc3cc4cc(OC)c(OC5CCNCC5)c(C)c4oc3=O)ccc2OC)c1` [KU-286], the IC50 in test [1] (setting [14]) stood at 4.02 µM; in test [2] (setting [15]) it was 3.5 µM; in test [3] (setting [16]), 2.82 ± 1.38 µM; in test [4] (setting [17]), 5.27 µM; in [5] (setting [18]), 1.2 ± 0.1 µM.

`COc1cccc(-c2cc(C(=O)Nc3cc4cc(OC)c(OC5CCN(C)CC5)c(C)c4oc3=O)ccc2OC)c1` [KU-287]: the IC50 in [1] (setting [14]) turned out to be 2.84 µM; in [2] (setting [15]) it was 1.99 µM; in test [3] (setting [16]), 1.79 ± 0.11 µM; in [4] (setting [17]), 4.07 µM; in [5] (setting [18]), 1.19 ± 0.21 µM.

On to `COc1cccc(-c2cc(C(=O)Nc3cc4ccc(OCCN(C)C)c(OC)c4oc3=O)ccc2OC)c1` [KU-292], for which the IC50 in [1] (Table 12, aliphatic chain analogues) amounted to 6.2 µM; in test [2] (Homo sapiens, A549, Table 12, aliphatic chain analogues) it was 8.8 µM; in [3] (Homo sapiens, MCF7, Table 12, aliphatic chain analogues, 72 hours), 3.08 ± 0.12 µM; in test [4] (Homo sapiens, Table 12, aliphatic chain analogues) it was 5.22 µM; in test [5] (Homo sapiens, SK-BR-3, Table 12, aliphatic chain analogues, 72 hours, read-out: IC50 SKBr3), 1.77 ± 0.15 µM.

Consider `COc1ccc(C(=O)Nc2cc3ccc(O[C@@H]4OC(C)(C)[C@H](OC)[C@@H](O)[C@H]4O)c(C)c3oc2=O)cc1-c1cccc(O)c1` [compound 36, N-(7-((2R,3R,4S,5R)-3,4-Dihydroxy-5-methoxy-6,6-dimethyltetrahydro-2H-pyran-2-yloxy)-8-methyl-2-oxo-2H-chromen-3-yl)-3′-hydroxy-6-methoxybiphenyl-3-carboxamide], for which the IC50 was 5.3 ± 1.5 µM in [3] (setting [19]); 2.5 ± 1.2 µM in test [6] (Table 4, biaryl analogues); 2.9 ± 1.2 µM in test [5] (setting [20]); 14.7 ± 2.4 µM in [7] (Table 4, biaryl analogues); 4.5 ± 1.2 µM in test [8] (Table 4, biaryl analogues); 1.1 µM in test [9] (Table 4, biaryl analogues).

Regarding `COc1ccc(C(=O)Nc2cc3ccc(O[C@@H]4OC(C)(C)[C@H](OC)[C@@H](O)[C@H]4O)c(C)c3oc2=O)cc1-c1ccc(O)cc1` [compound 37, N-(7-((2R,3R,4S,5R)-3,4-Dihydroxy-5-methoxy-6,6-dimethyltetrahydro-2H-pyran-2-yloxy)-8-methyl-2-oxo-2H-chromen-3-yl)-4′-hydroxy-6-methoxybiphenyl-3-carboxamide], the IC50 in [3] (setting [19]) came out at 2.3 ± 0.8 µM; in test [6] (Table 4, biaryl analogues) it was 2.6 ± 0.5 µM; in [5] (setting [20]) it was 1.6 ± 0.2 µM; in [7] (Table 4, biaryl analogues), 22.3 ± 3.6 µM; in test [8] (Table 4, biaryl analogues) it was 1.4 ± 0.1 µM; in [9] (Table 4, biaryl analogues), 1.9 ± 0.8 µM.

Regarding `COc1ccc(C(=O)Nc2cc3ccc(O[C@@H]4OC(C)(C)[C@H](OC)[C@@H](O)[C@H]4O)c(C)c3oc2=O)cc1-c1cccc2c1Sc1ccccc1S2` [compound 38, N-(7-((2R,3R,4S,5R)-3,4-Dihydroxy-5-methoxy-6,6-dimethyltetrahydro-2H-pyran-2-yloxy)-8-methyl-2-oxo-2H-chromen-3-yl)-4-methoxy-3-(thianthren-1-yl)benzamide], the IC50 in [3] (setting [19]) was over 100 µM; in test [6] (Table 4, biaryl analogues), 8.8 ± 0.6 µM; in [5] (setting [20]) it was over 100 µM; in test [7] (Table 4, biaryl analogues), 1 ± 0.1 µM; in [8] (Table 4, biaryl analogues), over 100 µM; in test [9] (Table 4, biaryl analogues), over 100 µM.

Consider `CO[C@@H]1[C@@H](O)[C@@H](O)[C@H](Oc2ccc3cc(NC(=O)c4ccccn4)c(=O)oc3c2C)OC1(C)C` [compound 40, N-(7-((2R,3R,4S,5R)-3,4-Dihydroxy-5-methoxy-6,6-dimethyltetrahydro-2H-pyran-2-yloxy)-8-methyl-2-oxo-2H-chromen-3-yl)picolinamide], for which the IC50 worked out at 20.3 ± 4.1 µM in test [3] (setting [21]); 44.9 ± 31.1 µM in test [6] (setting [22]); 28.4 ± 2 µM in test [5] (setting [23]); 15.1 ± 2.1 µM in test [7] (setting [22]); 23.3 ± 5.9 µM in test [8] (setting [22]); 7.9 ± 0.7 µM in test [9] (setting [22]).

Regarding `CO[C@@H]1[C@@H](O)[C@@H](O)[C@H](Oc2ccc3cc(NC(=O)c4cccnc4)c(=O)oc3c2C)OC1(C)C` [compound 41, N-(7-((2R,3R,4S,5R)-3,4-Dihydroxy-5-methoxy-6,6-dimethyltetrahydro-2H-pyran-2-yloxy)-8-methyl-2-oxo-2H-chromen-3-yl)nicotinamide], the IC50 in test [3] (setting [21]) came out at 47.8 ± 4.2 µM; in test [6] (setting [22]), 50.1 ± 3.3 µM; in [5] (setting [23]), 65.9 ± 15.8 µM; in test [7] (setting [22]), 67 ± 20.2 µM; in test [8] (setting [22]), 37.3 ± 1 µM; in test [9] (setting [22]), 13.2 ± 1 µM.

`CO[C@@H]1[C@@H](O)[C@@H](O)[C@H](Oc2ccc3cc(NC(=O)c4ccc5c(c4)OCO5)c(=O)oc3c2C)OC1(C)C` [compound 45, N-(7-((2R,3R,4S,5R)-3,4-Dihydroxy-5-methoxy-6,6-dimethyltetrahydro-2H-pyran-2-yloxy)-8-methyl-2-oxo-2H-chromen-3-yl)benzo[d][1,3]dioxole-5-carboxamide]: the IC50 in [3] (setting [21]) was over 100 µM; in test [6] (setting [22]), 9.3 ± 0.6 µM; in test [5] (setting [23]) it was over 100 µM; in test [7] (setting [22]), 10.9 ± 2.3 µM; in test [8] (setting [22]), over 100 µM; in [9] (setting [22]), 5.2 ± 1.1 µM.
